Measurements taken from US5543429A, “Antifungal agents” (Merck & Co., Inc., priority 1995, dated 1996).
Converted amounts (≈) assume the structure as drawn.

Key:
Candida albicans MY1055 = test: broth microdilution assay (MIC/MFC); settings: for MIC: MY1055, 24 h, read-out: Minimum Inhibitory Concentration (MIC); for MFC: MY1055, read-out: Minimum Fungicidal Concentration (MFC)
Candida glabrata MY1381 = test: broth microdilution assay (MIC/MFC); settings: Nakaseomyces glabratus; for MIC: MY1381, 24 h, read-out: Minimum Inhibitory Concentration (MIC); for MFC: MY1381, read-out: Minimum Fungicidal Concentration (MFC)
[1] = tested on: Candida parapsilosis MY1010; test: broth microdilution assay (MIC/MFC); settings: Lodderomyces parapsilosis; for MIC: MY1010, 24 h, read-out: Minimum Inhibitory Concentration (MIC); for MFC: MY1010, read-out: Minimum Fungicidal Concentration (MFC)
[2] = tested on: Candida pseudotropicalis MY2099; test: broth microdilution assay (MIC/MFC); settings: Kluyveromyces marxianus; for MIC: MY2099, 24 h, read-out: Minimum Inhibitory Concentration (MIC); for MFC: MY2099, read-out: Minimum Fungicidal Concentration (MFC)
[3] = tested on: Candida tropicalis MY1124; test: broth microdilution assay (MIC/MFC); settings: for MIC: MY1124, 24 h, read-out: Minimum Inhibitory Concentration (MIC); for MFC: MY1124, read-out: Minimum Fungicidal Concentration (MFC)
Candida albicans CLY539 = test: broth microdilution assay (MIC/MFC); settings: for MIC: CLY539, 24 h, read-out: Minimum Inhibitory Concentration (MIC); for MFC: CLY539, read-out: Minimum Fungicidal Concentration (MFC)
Candida albicans CA2 = test: broth microdilution assay (MIC/MFC); settings: for MIC: CA2, 24 h, read-out: Minimum Inhibitory Concentration (MIC); for MFC: CA2, read-out: Minimum Fungicidal Concentration (MFC)
[4] = tested on: Candida tropicalis MY1012; test: broth microdilution assay (MIC/MFC); settings: for MIC: MY1012, 24 h, read-out: Minimum Inhibitory Concentration (MIC); for MFC: MY1012, read-out: Minimum Fungicidal Concentration (MFC)
[5] = tested on: Candida guillermondii MY1019; test: broth microdilution assay (MIC/MFC); settings: for MIC: MY1019, 24 h, read-out: Minimum Inhibitory Concentration (MIC); for MFC: MY1019, read-out: Minimum Fungicidal Concentration (MFC)
[6] = tested on: Cryptococcus neoformans MY2062; test: broth microdilution assay (MIC/MFC); settings: MY2062, 48 h; for MIC: read-out: Minimum Inhibitory Concentration (MIC); for MFC: read-out: Minimum Fungicidal Concentration (MFC)
[7] = tested on: Saccharomyces cerevisiae MY2140; test: broth microdilution assay (MIC/MFC); settings: for MIC: MY2140, 24 h, read-out: Minimum Inhibitory Concentration (MIC); for MFC: MY2140, read-out: Minimum Fungicidal Concentration (MFC)
[8] = tested on: Saccharomyces cerevisiae MY2141; test: broth microdilution assay (MIC/MFC); settings: for MIC: MY2141, 24 h, read-out: Minimum Inhibitory Concentration (MIC); for MFC: MY2141, read-out: Minimum Fungicidal Concentration (MFC)
[9] = tested on: Aspergillus fumigatus MY4839; test: broth microdilution assay (MIC/MFC); settings: MY4839, 24 h, read-out: Minimum Inhibitory Concentration (MIC)
[10] = tested on: Aspergillus fumigatus MY5668; test: broth microdilution assay (MIC/MFC); settings: MY5668, 24 h, read-out: Minimum Inhibitory Concentration (MIC)
Plasmopara viticola = test: in vivo protectant assay, downy mildew on grape; settings: P. viticola
Botrytis cinerea = test: in vivo protectant assay, grey mold on pepper; settings: B. cinerea
Phytophthora infestans = type: in vivo; settings: P. infestans, miniature plant assay
Alternaria solani = test: in vivo protectant assay, early blight on tomato; settings: A. solani, miniature plant assay
Septoria nodorum = test: in vivo protectant assay, glume blotch on wheat; settings: S. nodorum, scaled up, high spray volume assay, 100 ppm
Puccinia recondita = test: in vivo protectant assay, wheat leaf rust on wheat; settings: P. recondita, scaled up, high spray volume assay, 100 ppm
panel of seven pathogens = test: in vivo protectant assay, panel of seven phytopathogens
[11] = tested on: Aspergillus flavus, Fusarium oxysporum, Ustilago zeae and the like; test: agar plate inhibition zone test with filamentous fungi; type: cell-based; settings: agar plates, 28°C or 37°C, 24 hours
[12] = tested on: Cryptococcus neoformans MY2061; test: broth microdilution assay (MIC/MFC); settings: MY2061, 48 h; for MFC: read-out: Minimum Fungicidal Concentration (MFC); for MIC: read-out: Minimum Inhibitory Concentration (MIC)
[13] = scaled up, high spray volume assay, 100 ppm

Row | SMILES | MIC (Candida albicans MY1055) | MFC (Candida albicans MY1055) | MIC (Candida glabrata MY1381) | MFC (Candida glabrata MY1381) | MIC [1] | MFC [1] | MIC [2] | MFC [2] | MIC [3] | MFC [3] | MIC (Candida albicans CLY539) | MFC (Candida albicans CLY539) | MIC (Candida albicans CA2) | MFC (Candida albicans CA2) | MIC [4] | MFC [4] | MIC [5] | MFC [5] | MIC [6] | MIC [7] | also measured
1 | C[C@@H]1[C@H](O)[C@@H](C)/C=C/C=C/C=C/C=C/C=C/C=C/C=C/[C@H](O[C@@H]2O[C@H](C)[C@@H](O)[C@H](N)[C@@H]2O)C[C@@H]2O[C@](O)(C[C@@H](O)C[C@@H](O)[C@H](O)CC[C@@H](O)C[C@@H](O)CC(=O)O[C@H]1C)C[C@H](O)[C@H]2C(=O)O [Amphotericin B, amphotericin B, reference compound] | 1 µg/mL (≈ 1.08 µM) | 1 µg/mL (≈ 1.08 µM) | 2 µg/mL (≈ 2.16 µM) | 2 µg/mL (≈ 2.16 µM) | 1 µg/mL (≈ 1.08 µM) | 1 µg/mL (≈ 1.08 µM) | 2 µg/mL (≈ 2.16 µM) | 2 µg/mL (≈ 2.16 µM) | 2 µg/mL (≈ 2.16 µM) | 2 µg/mL (≈ 2.16 µM) | 1 µg/mL (≈ 1.08 µM) | 2 µg/mL (≈ 2.16 µM) | 1 µg/mL (≈ 1.08 µM) | 1 µg/mL (≈ 1.08 µM) | 16 µg/mL (≈ 17.3 µM) | 16 µg/mL (≈ 17.3 µM) | 1 µg/mL (≈ 1.08 µM) | 2 µg/mL (≈ 2.16 µM) | 1 µg/mL (≈ 1.08 µM) | 1 µg/mL (≈ 1.08 µM) | MFC [7]: 1 µg/mL (≈ 1.08 µM); MIC [8]: 1 µg/mL (≈ 1.08 µM); MFC [8]: 1 µg/mL (≈ 1.08 µM); MIC [9]: 2 µg/mL (≈ 2.16 µM); MIC [10]: 2 µg/mL (≈ 2.16 µM)
2 | C=CC1=CCC2C(CC3OC(=O)C4(C)C(O)CCC2(C)C34O)C1C (stereo not drawn) [Compound II] | 2 µg/mL (≈ 6.02 µM) | 4 µg/mL (≈ 12 µM) | 4 µg/mL (≈ 12 µM) | 4 µg/mL (≈ 12 µM) | 8 µg/mL (≈ 24.1 µM) | 8 µg/mL (≈ 24.1 µM) | 1 µg/mL (≈ 3.01 µM) | 2 µg/mL (≈ 6.02 µM) | 4 µg/mL (≈ 12 µM) | 8 µg/mL (≈ 24.1 µM) | 2 µg/mL (≈ 6.02 µM) | 2 µg/mL (≈ 6.02 µM) | 32 µg/mL (≈ 96.3 µM) | 4 µg/mL (≈ 12 µM) | 2 µg/mL (≈ 6.02 µM) | 2 µg/mL (≈ 6.02 µM) | 8 µg/mL (≈ 24.1 µM) | 16 µg/mL (≈ 48.1 µM) | 1 µg/mL (≈ 3.01 µM) | 1 µg/mL (≈ 3.01 µM) | percent control of disease (Plasmopara viticola; miniature plant assay): 80-95%; percent control of disease (Plasmopara viticola; protectant assay, 11 ppm): 50-85%; percent control of disease (Plasmopara viticola; [13]): 100%; percent control of disease (Botrytis cinerea; miniature plant assay): 80-95%; percent control of disease (Botrytis cinerea; protectant assay, 11 ppm): 50-85%; percent control of disease (Botrytis cinerea; [13]): 100%; percent control of disease (Phytophthora infestans): 80-95%; percent control of disease (Alternaria solani): 80-95%; percent control of disease (Septoria nodorum): 60%; percent control of disease (Puccinia recondita): 100%; control of phytopathogens (panel of seven pathogens): very efficacious at controlling six of the phytopathogens; inhibition of growth of filamentous fungi [11]: effectively inhibit growth of the fungal organisms; MFC [12]: 1 µg/mL (≈ 3.01 µM); MIC [12]: 2 µg/mL (≈ 6.02 µM); MFC [6]: 1 µg/mL (≈ 3.01 µM); MFC [7]: 2 µg/mL (≈ 6.02 µM); MIC [8]: 0.5 µg/mL (≈ 1.5 µM); MFC [8]: 1 µg/mL (≈ 3.01 µM); MIC [9]: 2 µg/mL (≈ 6.02 µM); MIC [10]: 1 µg/mL (≈ 3.01 µM)
3 | C=CC1C(=C)CCC2C1CC1OC(=O)C3(C)C(O)CCC2(C)C13O (stereo not drawn) [Compound I] | 2 µg/mL (≈ 6.02 µM) | 4 µg/mL (≈ 12 µM) | 8 µg/mL (≈ 24.1 µM) | 8 µg/mL (≈ 24.1 µM) | 8 µg/mL (≈ 24.1 µM) | 32 µg/mL (≈ 96.3 µM) | 4 µg/mL (≈ 12 µM) | 4 µg/mL (≈ 12 µM) | 8 µg/mL (≈ 24.1 µM) | 16 µg/mL (≈ 48.1 µM) | 4 µg/mL (≈ 12 µM) | 2 µg/mL (≈ 6.02 µM) | 8 µg/mL (≈ 24.1 µM) | 8 µg/mL (≈ 24.1 µM) | 2 µg/mL (≈ 6.02 µM) | 2 µg/mL (≈ 6.02 µM) | 8 µg/mL (≈ 24.1 µM) | 16 µg/mL (≈ 48.1 µM) | 0.25 µg/mL (≈ 0.752 µM) | 2 µg/mL (≈ 6.02 µM) | percent control of disease (Plasmopara viticola; 200 ppm): up to 80%; percent control of disease (Botrytis cinerea; 200 ppm): up to 80%; inhibition of growth of filamentous fungi [11]: effectively inhibit growth of the fungal organisms; MFC [12]: 0.25 µg/mL (≈ 0.752 µM); MIC [12]: 0.5 µg/mL (≈ 1.5 µM); MFC [6]: 0.25 µg/mL (≈ 0.752 µM); MFC [7]: 8 µg/mL (≈ 24.1 µM); MIC [8]: 1 µg/mL (≈ 3.01 µM); MFC [8]: 8 µg/mL (≈ 24.1 µM); MIC [9]: 4 µg/mL (≈ 12 µM); MIC [10]: 8 µg/mL (≈ 24.1 µM)
